The results in this text go back to paper PMC11364768 (Nature Communications, 2024).

Data set [1] deals with E. coli (ATCC BAA-1025). The experiment in a line: Minimal inhibition concentration. In kind it is cell-based. The conditions noted are these: Escherichia coli, ATCCBAA1025, 20 h, read-out: Antimicrobial activity (MIC in µg/ml) E. coli.
Data set [2] deals with S. aureus (ATCC 25904). The experiment in a line: Minimal inhibition concentration. The format is cell-based. Particulars: Staphylococcus aureus, ATCC25904, 20 h, read-out: Antimicrobial activity (MIC in µg/ml) S. aureus.
The subject of data set [3] is K. pneumoniae (ATCC27736). The data set is described as follows: Minimal inhibition concentration. In kind it is cell-based. The conditions noted are these: Klebsiella pneumoniae, ATCC27736, 20 h, read-out: Antimicrobial activity (MIC in µg/ml) K. pneumoniae.
Data set [4] has as its system P. aeruginosa (ATCC 47085). The data set is described as follows: Minimal inhibition concentration. The conditions noted are these: Pseudomonas aeruginosa, ATCC47085, 20 h, read-out: Antimicrobial activity (MIC in µg/ml) P. aeruginosa. The format is cell-based.
The test system of data set [5] is P. aeruginosa. The data set is described as follows: Wound mouse model, bacterial load on the wound surface. The conditions noted are these: 10^7 CFU P. aeruginosa inoculated; 10 mg/kg applied to wound twice a day; n = 8. The format is in vivo, Female ICR mice.
For data set [6], the system named is S. aureus. The experiment in a line: Bacterial resistance development, serial passage. Particulars: passaged every 24 h, n = 4. The format is cell-based, Staphylococcus aureus.
Data set [7] in a line: Organ. The format is in vivo, ICR mice. Particulars: mice, 10 mg/kg.
Data set [8] is described as follows: Blood test, RBC parameters after intraperitoneal injection. In kind it is in vivo, ICR mice. Particulars: mice, 24 h after intraperitoneal injection.

Values after ≈ are worked out from the molar mass of the structure shown. No end group written: not given here.

Consider `C[C@H]1COc2c(N3CCN(C)CC3)c(F)cc3c(=O)c(C(=O)O)cn1c23` [Levofloxacin], for which the MIC in data set [1] was 2.93 µg/mL (≈ 8.11 µM); in data set [2] it was 0.09 µg/mL (≈ 0.249 µM); in data set [3] it was 0.06 µg/mL (≈ 0.166 µM); in data set [4] it was 7.81 µg/mL (≈ 21.6 µM). Further, the “bacteria on the infected wound after 24 h treatment” value in data set [5] was 0 CFU.

In the case of `CN[C@H](CC(C)C)C(=O)N[C@H]1C(=O)N[C@@H](CC(N)=O)C(=O)N[C@H]2C(=O)N[C@H]3C(=O)N[C@H](C(=O)N[C@H](C(=O)O)c4cc(O)cc(O)c4-c4cc3ccc4O)[C@H](O)c3ccc(c(Cl)c3)Oc3cc2cc(c3O[C@@H]2O[C@H](CO)[C@@H](O)[C@H](O)[C@H]2O[C@H]2C[C@](C)(N)[C@H](O)[C@H](C)O2)Oc2ccc(cc2Cl)[C@H]1O` [Vancomycin], the MIC in data set [3] was found to be 1000 µg/mL (≈ 690 µM).

As to `O=C(O)c1cn(C2CC2)c2cc(N3CCNCC3)c(F)cc2c1=O` [ciprofloxacin], the “passages after which S. aureus began to develop resistance” value in data set [6] was determined as 10 passages.

In the case of RQIKIWFQIRRWKWKK [T1-2], in data set [7], the “organ-specific toxicity, tissue section images” value (“organ-specific toxicity” for short) is reported as “did not observe organ-specific toxicity”. In addition, the Blood test results in data set [8] is “no obvious changes”.

RQIKIWFQWRRWKWKK [T1-5]: in data set [7], the “organ-specific toxicity” value is “did not observe organ-specific toxicity”. Further, the Blood test results in data set [8] is on record as “no obvious changes”.

Regarding RQIRIWFQWKRWKWKR [T2-10], the “organ-specific toxicity” value in data set [7] was “did not observe organ-specific toxicity”. The Blood test results in data set [8] was “no obvious changes”.
